Source: PubChem BioAssay AID248 (DTP/NCI, 2004)
Toxic doses and inconclusive results are not listed. Cut-off read from the data, not from the text of the source: active = T/C of 150% or more; inactive = T/C below 125%.

Test system: L1210 leukemia ip in BDF1 mice, survival T/C
Experiment: NCI In Vivo Anticancer Drug Screen. Data for tumor model L1210 Leukemia (intraperitoneal) in B6D2F1 (BDF1) mice
Settings: endpoint: mean survival time, higher = longer survival
In short: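 Antitumor effect is assessed in tumor-bearing animals. Survival in the compound arm is compared with a vehicle-dosed control arm and expressed as their quotient.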

[1] = dose: 100.0 mg/kg/injection, schedule: Q01DX001 (ip), vehicle: saline
[2] = dose: 200.0 mg/kg/injection, schedule: Q01DX001 (ip), vehicle: saline
[3] = dose: 100.0 mg/kg/injection, schedule: Q01DX001 (ip), vehicle: carboxymethylcellulose (CMC)
[4] = dose: 200.0 mg/kg/injection, schedule: Q01DX001 (ip), vehicle: carboxymethylcellulose (CMC)
[5] = dose: 400.0 mg/kg/injection, schedule: Q01DX001 (ip), vehicle: carboxymethylcellulose (CMC)
[6] = dose: 100.0 mg/kg/injection, schedule: Q01DX009 (ip), vehicle: saline
[7] = dose: 100.0 mg/kg/injection, schedule: Q04DX003 (ip), vehicle: acetone
[8] = dose: 100.0 mg/kg/injection, schedule: Q01DX009 (ip), vehicle: saline with Tween-80
[9] = dose: 100.0 mg/kg/injection, schedule: Q04DX003 (ip), vehicle: saline with Tween-80
[10] = dose: 200.0 mg/kg/injection, schedule: Q01DX009 (ip), vehicle: saline with Tween-80
[11] = dose: 200.0 mg/kg/injection, schedule: Q04DX003 (ip), vehicle: saline with Tween-80
[12] = dose: 400.0 mg/kg/injection, schedule: Q01DX009 (ip), vehicle: saline with Tween-80
[13] = dose: 400.0 mg/kg/injection, schedule: Q04DX003 (ip), vehicle: saline with Tween-80
[14] = dose: 100.0 mg/kg/injection, schedule: Q04DX003 (ip), vehicle: saline
[15] = dose: 200.0 mg/kg/injection, schedule: Q04DX003 (ip), vehicle: saline
[16] = dose: 400.0 mg/kg/injection, schedule: Q04DX003 (ip), vehicle: saline
[17] = dose: 50.0 mg/kg/injection, schedule: Q01DX001 (ip), vehicle: carboxymethylcellulose (CMC)
[18] = dose: 400.0 mg/kg/injection, schedule: Q01DX001 (ip), vehicle: saline

Measured: T/C

COc1ccc(S(=O)(=O)N=[N+]=[N-])cc1
inactive: [1] 103 % of control | [2] 95 % of control

CCS(=O)(=O)C(CCC(C)C)CCC(C)C
inactive: [3] 102 % of control | [4] 109 % of control | [5] 104 % of control

CC(/C=C/C(O)=C1/C(=O)CNC1=O)=C\[C@@H](C)[C@H]1O[C@@]2(C)O[C@H](C(=O)[C@@H]3O[C@@]32C)[C@@H]1C
inactive: dose: 25.0 mg/kg/injection, schedule: Q01DX009 (ip), vehicle: saline 94 % of control | dose: 50.0 mg/kg/injection, schedule: Q01DX009 (ip), vehicle: saline 100 % of control | dose: 100.0 mg/kg/injection, schedule: Q01DX001 (ip), vehicle: acetone 89 % of control | [6] 93 % of control | [7] 87 % of control | dose: 200.0 mg/kg/injection, schedule: Q01DX001 (ip), vehicle: acetone 89 % of control | dose: 400.0 mg/kg/injection, schedule: Q01DX001 (ip), vehicle: acetone 96 % of control

COc1ccc(C(=O)c2ccc3ccccc3c2)cc1
inactive: [3] 92 % of control | [4] 92 % of control | [5] 94 % of control

O=C(CCC(O)c1ccccc1)c1ccccc1 (configuration not stated)
inactive: [8] 94 % of control | [9] 110 % of control | [10] 94 % of control | [11] 106 % of control | [12] 97 % of control | [13] 97 % of control

C#CCCN1CCC2(CC1)C(=O)NCN2c1ccccc1
inactive: dose: 100.0 mg/kg/injection, schedule: Q01DX001 (ip), vehicle: Klucel (hydroxypropylcellulose) (HPC) 91 % of control | dose: 200.0 mg/kg/injection, schedule: Q01DX001 (ip), vehicle: Klucel (hydroxypropylcellulose) (HPC) 94 % of control | dose: 400.0 mg/kg/injection, schedule: Q01DX001 (ip), vehicle: Klucel (hydroxypropylcellulose) (HPC) 91 % of control

Cc1cc(/C=C\c2ccccc2Cl)nc2cc(Cl)ccc12
inactive: [14] 102 % of control | [15] 98 % of control | [16] 102 % of control

O=C1CCCCCCC12CCCCC2
inactive: dose: 100.0 mg/kg/injection, schedule: Q01DX009 (ip), vehicle: Klucel (hydroxypropylcellulose) (HPC) 88 % of control | dose: 100.0 mg/kg/injection, schedule: Q04DX003 (ip), vehicle: Klucel (hydroxypropylcellulose) (HPC) 102 % of control | dose: 200.0 mg/kg/injection, schedule: Q01DX009 (ip), vehicle: Klucel (hydroxypropylcellulose) (HPC) 98 % of control | dose: 200.0 mg/kg/injection, schedule: Q04DX003 (ip), vehicle: Klucel (hydroxypropylcellulose) (HPC) 95 % of control | dose: 400.0 mg/kg/injection, schedule: Q01DX009 (ip), vehicle: Klucel (hydroxypropylcellulose) (HPC) 98 % of control | dose: 400.0 mg/kg/injection, schedule: Q04DX003 (ip), vehicle: Klucel (hydroxypropylcellulose) (HPC) 91 % of control

COc1ccc(N2C(=O)CCC2=S)cc1
inactive: [17] 104 % of control | [3] 96 % of control | [4] 102 % of control | [5] 102 % of control

ClC1=C(Cl)C2(Cl)C(c3ccccc3)=CC1(Cl)C2(Cl)Cl (configuration not stated)
inactive: dose: 100.0 mg/kg/injection, schedule: Q01DX009 (ip), vehicle: gum acacia 93 % of control | dose: 100.0 mg/kg/injection, schedule: Q04DX003 (ip), vehicle: gum acacia 114 % of control | dose: 200.0 mg/kg/injection, schedule: Q01DX009 (ip), vehicle: gum acacia 90 % of control | dose: 200.0 mg/kg/injection, schedule: Q04DX003 (ip), vehicle: gum acacia 99 % of control | dose: 400.0 mg/kg/injection, schedule: Q01DX009 (ip), vehicle: gum acacia 100 % of control | dose: 400.0 mg/kg/injection, schedule: Q04DX003 (ip), vehicle: gum acacia 92 % of control

CCC(C)C1(C)C(=O)N(C)C(=S)N(C)C1=O (configuration not stated)
inactive: dose: 5.0 mg/kg/injection, schedule: Q01DX001 (ip), vehicle: saline 95 % of control | dose: 10.0 mg/kg/injection, schedule: Q01DX001 (ip), vehicle: saline 91 % of control | dose: 20.0 mg/kg/injection, schedule: Q01DX001 (ip), vehicle: saline 96 % of control | dose: 40.0 mg/kg/injection, schedule: Q01DX001 (ip), vehicle: saline 89 % of control

O=C1NS(=O)(=O)CS(=O)(=O)N1
inactive: [1] 108 % of control | [2] 104 % of control | [18] 101 % of control

O=C(O)c1ccc(S(=O)(=O)O)cc1C(=O)O
inactive: dose: 50.0 mg/kg/injection, schedule: Q01DX001 (sc), vehicle: olive oil, sesame oil, peanut oil 104 % of control | dose: 100.0 mg/kg/injection, schedule: Q01DX001 (sc), vehicle: olive oil, sesame oil, peanut oil 102 % of control | [8] 89 % of control | [14] 104 % of control | dose: 200.0 mg/kg/injection, schedule: Q01DX001 (sc), vehicle: olive oil, sesame oil, peanut oil 96 % of control | [10] 88 % of control | [15] 102 % of control | dose: 400.0 mg/kg/injection, schedule: Q01DX001 (sc), vehicle: olive oil, sesame oil, peanut oil 98 % of control | [16] 101 % of control

c1ccc(SSc2ccccc2)cc1
inactive: dose: 25.0 mg/kg/injection, schedule: Q01DX009 (ip), vehicle: saline with Tween-80 89 % of control | dose: 25.0 mg/kg/injection, schedule: Q04DX003 (ip), vehicle: saline with Tween-80 95 % of control | dose: 50.0 mg/kg/injection, schedule: Q01DX009 (ip), vehicle: saline with Tween-80 86 % of control | dose: 50.0 mg/kg/injection, schedule: Q04DX003 (ip), vehicle: saline with Tween-80 103 % of control | [9] 97 % of control

ClCN(CCl)CCl
inactive: [17] 102 % of control | [3] 94 % of control | [4] 105 % of control

COC(=O)/C=C(\C)CCC1OC1(C)C (configuration not stated)
inactive: [1] 105 % of control | [7] 95 % of control | [2] 100 % of control | dose: 200.0 mg/kg/injection, schedule: Q04DX003 (ip), vehicle: acetone 108 % of control | [18] 94 % of control | dose: 400.0 mg/kg/injection, schedule: Q04DX003 (ip), vehicle: acetone 103 % of control

CCSCCSCC
inactive: [6] 98 % of control | [14] 101 % of control | dose: 200.0 mg/kg/injection, schedule: Q01DX009 (ip), vehicle: saline 98 % of control | [15] 97 % of control | dose: 400.0 mg/kg/injection, schedule: Q01DX009 (ip), vehicle: saline 96 % of control | [16] 97 % of control

Cc1ccc(Nc2cc(Cl)nc(N)n2)cc1Cl
inactive: dose: 100.0 mg/kg/injection, schedule: Q01DX Z (ip), vehicle: methylcellulose (MC) 97 % of control | dose: 200.0 mg/kg/injection, schedule: Q01DX Z (ip), vehicle: methylcellulose (MC) 100 % of control

CC=NC(C[S-])C(=O)O.CC=NC(C[S-])C(=O)O.[Fe+2] (configuration not stated)
inactive: [8] 92 % of control | [9] 94 % of control | [10] 91 % of control | [11] 93 % of control | [12] 87 % of control | [13] 88 % of control
